Experimental findings from patent publication US20240091358A1, “[…] REGULATION” (Senti Biosciences, Inc., priority 2021, published 2024) are described below.

What all share (type): cell-based
The test system of series [1] is HEK293Ft cells. Nature of the series: SEAP QuantiBlue assay of SEAP/degron constructs in HEK293Ft cells (Example 1). Particulars: 1 μM lenalidomide vs no drug.
Series [2] relates to donor-derived T cells. As to the kind of experiment: SEAP QuantiBlue assay of SEAP/degron constructs in donor-derived T cells (Example 1). Particulars: 1 μM lenalidomide vs no drug. As for the experimental part: A series of pL17d-based viral vector constructs were generated using Secreted Alkaline Phosphatase (SEAP) fused to a degron (d913 super degron) using various linkers, as described in Table 6A with sequences listed in Table 6B. The d913 super degron is described in more detail in International Application Pub. No. WO2019/089592A1, herein incorporated by reference for all purposes.
(§1) SEAP assays were performed using the QuantiBlue kit (Invivogen; rep-qb1). […] The CliniMACS Prodigy utilizes a closed-system, single-use disposable kits for many different cell types. The automated program performs platelet washes, CD4+& CD8+ bead labeling, and positive selection over a magnet resulting in cell suspensions with high purity. Positively selected T cells were then sampled, analyzed for cell surface phenotype via flow cytometry and cryopreserved via a controlled rate freezer. • Cells were then thawed and activated on Day 0 (1e6 cells/mL in a 24 well plate were activated 3:1 with CD3/CD28 Dynabeads) • On Day 1, 100K GS units of virus were added to cells • On Day 2, fresh media was added to T cells • On Day 4, each well was split into 2 wells of 6 well plate with +/−1 μM lenalidomide • On Day 7, cells were pelleted and 20 uL supernatant from each well was harvested and incubated with 180 uL QuantiBlue (Invivogen) for 1 h at 37 deg, SEAP activity was read out on a plate reader at 655 nm

Series [3] has as its system HEK293Ft cells. Nature of the series: SEAP QuantiBlue assay of Membrane-Cleavable Degron constructs in HEK293Ft cells (Example 2). Particulars: 1 μM lenalidomide vs no drug.
Series [4] concerns donor-derived T cells. As to the kind of experiment: SEAP QuantiBlue assay of Membrane-Cleavable Degron constructs in donor-derived T cells (Example 2). Particulars: supernatant, 1 μM lenalidomide vs no drug. As for the experimental part: A series of pL17d-based viral vector constructs were generated using Secreted Alkaline Phosphatase (SEAP) fused to a degron (d913 super degron) using various linkers, including transmembrane domain containing linkers, as described in Table 8A with sequences listed in Table 8B.
as §1, with “into 6” for “into 2”, “of 48” for “of 6”, “lenalidomide (3 wells with drug, 3 wells without)” for “lenalidomide”

The subject of series [5] is Jurkat T cells. Nature of the series: SEAP QuantiBlue assay in Jurkat T cells (Example 3). Particulars: supernatant, 1 μM lenalidomide vs no drug. As for the experimental part: The viral vector constructs were generated, as described above, using Secreted Alkaline Phosphatase (SEAP) fused to a degron (d913 super degron) with various linkers, including transmembrane domain containing linkers. The constructs examined are described in Table 10.
SEAP assays were performed using the QuantiBlue kit (Invivogen; rep-qb1). For experiments performed in Jurkat cells, the following protocol was followed: • On Day 1, cells were plated at 1e6 cells in 1 mL in a 24 well plate and 300 k GS units of virus was added • On Day 3, cells were split into 6 wells of a 48 well plate (1e5 cells in 0.5 mL) and drug was added to 3 of these wells (1 μM lenalidomide) • On Day 6, cells were pelleted and 20 uL supernatant from each well was harvested and incubated with 180 uL QuantiBlue (Invivogen) for 1 h at 37 deg, SEAP activity was read out on a plate reader at 655 nm

Where [6] appears, read: SEAP absorbance divided by cell count per well.

Consider “Construct 419: pL17d viral vector construct expressing SEAP without a degron; SEQ ID NO: 179 [reference compound]”, for which the “% SEAP OFF vs. ON (Len treated/untreated *100) Normalized to cell count” value amounted to 133% in series [1] (setting [6]), 169% in series [2] (setting [6]) and 104.3% in series [3] (setting [6]). The “% SEAP OFF vs. ON (Len treated/untreated *100)” value in series [1] (supernatant) was 103%; in series [2] (supernatant) it was 127%; in series [3] (supernatant), 70%; in series [4], 129%. In addition, the “OFF % of ON (SEAP enzymatic activity)” value in series [5] is listed as 105.3 (ns) %.
